Results published in PMC9501633, “Synthesis, Characterisation and Mechanism of Action of Anticancer 3-Fluoroazetidin-2-ones” (Pharmaceuticals, 2022).

Tests used:
SW-480 cells = assay: AlamarBlue cell viability assay; assay type: cell-based
Experimental: Compound # (Treatment Concentration µM) […]
different para-substituent ring B 26-29; 3-fluoro β-lactam compounds containing different meta-substituent ring B 30, 33-35; (B) 3,3-difluoro β-lactam compounds containing different para-substituent ring B 36-39; 3,3-difluoro β-lactam compounds containing different meta-substituent […]
ring B 40, 42-45 in SW-480 cancer cells.
Cell proliferation of MCF-7 cells was determined with an alamarBlue assay (seeding density […]
Compound concentrations of either 10 μM or 1 μM for 72 h were used to treat the cells with control wells containing vehicle ethanol (1%

MCF-7 cells = assay: Immunofluorescence confocal microscopy of the microtubule network; assay type: cell-based, human; settings: MCF-7, 16 h; 33 0.1, 0.5 and 1.0 μM; paclitaxel 1.0 μM; CA-4 0.01 μM
Experimental: The tubulin-targeting effect of compound 33 on the microtubule network of MCF-7 cells was further evaluated by immunofluorescence studies to identify the cellular effects that are relevant to its mechanism of action by inhibiting the polymerisation of tubulin. […] Treatment of MCF-7 cells with compound 33 (0.1, 0.5 and 1.0 μM) induced cell rounding and distinct abnormalities of the spindle formation as well as a loss of the structured tubulin that impacts the microtubule network structure in a dose-dependent manner.
Confocal microscopy was used to determine the effects of novel compound 33 and standard drugs on the MCF-7 cytoskeleton according to the protocols we previously described. For the immunofluorescence study, MCF-7 cells were seeded at 1 × 10^5 cells/mL using eight chamber glass slides (BD Biosciences). The cells were treated with vehicle control (1% ethanol (v/v)), CA-4 (0.01 μM), paclitaxel (1 µM) and 33 (0.1 µM, 0.5 µM and 1 µM) for 16 h. The cells were gently washed in PBS, fixed with 4% paraformaldehyde in PBS (20 min) and permeabilised in 0.5% Triton X-100. After further washes in PBS (containing 0.1% Tween (PBST)), cells were blocked with 5% bovine serum albumin which was diluted with PBST. Cells were incubated with mouse monoclonal anti-α-tubulin–FITC antibody (clone DM1A) (Sigma) (1:100) at 20 °C for 2 h and then washed in PBST and incubated with Alexa Fluor 488 dye (1:500) for 1 h at 20 °C. Cells were washed in PBST and mounted in Ultra Cruz Mounting Media (Santa Cruz Biotechnology, Santa Cruz, CA, USA) containing 4,6-diamino-2-phenolindol dihydrochloride (DAPI). The images were captured by Leica SP8 confocal microscopy with Leica Application Suite X software. Experiments were performed on three independent occasions and images were collected on the same day using identical parameters.
Figure 8 Compound 33 acts as depolymeriser of the microtubule network of MCF-7 breast cancer cells. Cells were treated with vehicle control ([…]), CA-4 (0.01 μM), paclitaxel (1 μM) or compound 33 (0.1, 0.5 and 1 μM) for 16 h. […]

HL-60(TB) = assay: NCI 60 cell line screen, Leukaemia; assay type: cell-based, human; settings: for inhibition at 10 µM / Growth %: one dose 10 µM
COLO 205 = assay: NCI 60 cell line screen, Colon; assay type: cell-based, human; settings: for inhibition at 10 µM / Growth %: one dose 10 µM
SNB-19 = assay: NCI 60 cell line screen, CNS; assay type: cell-based, human; settings: for inhibition at 10 µM / Growth %: one dose 10 µM
LOX IMVI = assay: NCI 60 cell line screen, Melanoma; assay type: cell-based, human; settings: for inhibition at 10 µM / Growth %: one dose 10 µM
SK-MEL-28 = assay: NCI 60 cell line screen, Melanoma; assay type: cell-based, human; settings: for inhibition at 10 µM / Growth %: one dose 10 µM
IGROV1 = assay: NCI 60 cell line screen, Ovarian; assay type: cell-based, human; settings: for inhibition at 10 µM: IGROV-1, one dose 10 µM; for Growth %: one dose 10 µM
SN12C = assay: NCI 60 cell line screen, Renal; assay type: cell-based, human; settings: for inhibition at 10 µM / Growth %: one dose 10 µM
BT-549 = assay: NCI 60 cell line screen, Breast; assay type: cell-based, human; settings: for inhibition at 10 µM / Growth %: one dose 10 µM

SMILES | effect on the microtubule network (MCF-7 cells) | inhibition at 10 µM (HL-60(TB); Homo sapiens) [%] | Growth % (HL-60(TB)) [%] | inhibition at 10 µM (COLO 205; Homo sapiens) [%] | Growth % (COLO 205) [%] | inhibition at 10 µM (SNB-19; Homo sapiens) [%] | Growth % (SNB-19) [%] | inhibition at 10 µM (LOX IMVI; Homo sapiens) [%] | Growth % (LOX IMVI) [%] | inhibition at 10 µM (SK-MEL-28; Homo sapiens) [%] | Growth % (SK-MEL-28) [%] | inhibition at 10 µM (IGROV1; Homo sapiens) [%] | Growth % (IGROV1) [%] | inhibition at 10 µM (SN12C; Homo sapiens) [%] | Growth % (SN12C) [%] | inhibition at 10 µM (BT-549; Homo sapiens) [%] | Growth % (BT-549) [%] | also measured
COc1ccc(/C=C\c2cc(OC)c(OC)c(OC)c2)cc1O [CA-4, combretastatin A-4, reference compound] | depolymerisation and destabilisation | – | – | – | – | – | – | – | – | – | – | – | – | – | – | – | – | IC50 (SW-480 cells; Homo sapiens, SW480 cells): 6.3 ± 0.6 nM
COc1ccc(C2N(c3cc(OC)c(OC)c(OC)c3)C(=O)C2(F)F)cc1F (stereo not drawn) [Compound 43, 3,3-Difluoro-4-(3-fluoro-4-methoxyphenyl)-1-(3,4,5-trimethoxyphenyl)azetidin-2-one] | – | 99.1 | 0.94 | 83.7 | 16.32 | 47.1 | 52.93 | 72.9 | 27.06 | 22.8 | 77.22 | 55.8 | 44.2 | 45.1 | 54.92 | 65 | 34.99 | –
CCOc1ccc(C2N(c3cc(OC)c(OC)c(OC)c3)C(=O)C2(F)F)cc1 (stereo not drawn) [Compound 37, 4-(4-Ethoxyphenyl)-3,3-difluoro-1-(3,4,5-trimethoxyphenyl)azetidin-2-one] | – | 116 | -15.97 | 89.2 | 10.78 | 45.9 | 54.14 | 72.4 | 27.57 | 33.2 | 66.8 | 62.2 | 37.8 | 49 | 50.97 | 55.8 | 44.17 | –
COc1ccc(C2C(F)C(=O)N2c2cc(OC)c(OC)c(OC)c2)cc1F (stereo not drawn) [Compound 33, 3-Fluoro-4-(3-fluoro-4-methoxyphenyl)-1-(3,4,5-trimethoxyphenyl)azetidin-2-one] | destabilising microtubules | 115 | -14.69 | 168 | -68 | 66 | 34.05 | 76 | 23.98 | 42.3 | 57.74 | 68.1 | 31.88 | 66.7 | 33.29 | 84.7 | 15.26 | cells remaining (SW-480 cells; SW-480, 10 μM, 72 h): 62%; TGI (HL-60(TB); 5-dose, 48 h): 399 nM; GI50 (HL-60(TB); Homo sapiens, 5-dose, 48 h): 80.5 nM; TGI (COLO 205; 5-dose, 48 h): 503 nM; GI50 (COLO 205; Homo sapiens, 5-dose, 48 h): 156 nM; CC50 (COLO 205; Homo sapiens, 5-dose, 48 h, read-out: LC50 (the source's name)): 8230 nM; TGI (SNB-19; 5-dose, 48 h): >100000 nM; GI50 (SNB-19; Homo sapiens, 5-dose, 48 h): 302 nM; TGI (LOX IMVI; 5-dose, 48 h): >100000 nM; GI50 (LOX IMVI; Homo sapiens, 5-dose, 48 h): 90.4 nM; TGI (SK-MEL-28; 5-dose, 48 h): >100000 nM; GI50 (SK-MEL-28; Homo sapiens, 5-dose, 48 h): 15800 nM; TGI (IGROV1; 5-dose, 48 h): >100000 nM; GI50 (IGROV1; Homo sapiens, IGROV-1, 5-dose, 48 h): 94.6 nM; TGI (SN12C; 5-dose, 48 h): >100000 nM; GI50 (SN12C; Homo sapiens, 5-dose, 48 h): 482 nM; TGI (BT-549; 5-dose, 48 h): 33800 nM; GI50 (BT-549; Homo sapiens, 5-dose, 48 h): 49.8 nM
